Test results from patent US20170369878A1, “MICRORNA COMBINATIONS FOR ANTI-CANCER THERAPEUTICS” (Massachusetts Institute of Technology, priority 2015, published 2017).

Test system: OVCAR8 cells and OVCAR8-ADR cells
Experiment: Docetaxel dose-response (MTT), resistant versus parental line
Type: cell-based, human
Conditions: docetaxel three days, FIG. 13
Method: OVCAR8 cells (triangles) and OVCAR8-ADR (squares) cells (docetaxel-resistant derivative of OVCAR8) cells were treated with docetaxel at indicated doses for three days and subjected to the MTT assay. Cell viabilities were compared to the respective no drug controls. The OVCAR8-ADR cell line has a ˜3-fold higher IC50 than the parental OVCAR8 cell line. Data represent the mean±SD (n=3).
For the MTT assay, 100 μl of MTT (3-(4,5-dimethylthiazol-2-yl)-2,5-diphenyltetrazolium bromide) solution (Sigma) was added to the cell cultures in 96-well plates and incubated at 37° C. with 5% CO2 for 2 hours. Viable cells convert the soluble MTT salt to insoluble blue formazan crystals. Formazan crystals formed were dissolved with 100 μl of solubilization buffer at 37° C. The absorbance of the solubilized formazan was measured at an optical density (OD) of 570 nm (along with the reference OD at 650 nm) using a Synergy H1 Microplate Reader (BioTek). For the trypan blue exclusion assay, cells were trypsinized and stained with 0.4% trypan blue dye solution (Sigma). Viable cells were counted in four different fields of a hemacytometer under microscopy.

CC(=O)O[C@@]12CO[C@@H]1C[C@H](O)[C@@]1(C)C(=O)[C@H](O)C3=C(C)[C@@H](OC(=O)[C@H](O)[C@@H](NC(=O)OC(C)(C)C)c4ccccc4)C[C@@](O)([C@@H](OC(=O)c4ccccc4)[C@H]21)C3(C)C [docetaxel]
IC50 of OVCAR8-ADR relative to parental OVCAR8: ~3 fold
